Source: patent publication US12390483B2, “Compounds and methods for treating neurological and cardiovascular conditions” (Astrocyte Pharmaceuticals, Inc., priority 2016, dated 2025)
Like-named read-outs stand apart in the source and are kept apart here.

Columns and labels:
[1] = In vitro stability and metabolite scouting of MRS2365 in human plasma; type: in vitro ADME
Procedure: (§1) Whole blood was obtained from male CD-1 mice and human volunteers at Seventh Wave Laboratories (Maryland Heights, MO). Plasma and blood samples were prepared using either EDTA (1 mM) or lithium heparin as anticoagulants.
Plasma Stability Determination: MRS2365, enalapril and procaine were solubilized in phosphate-buffered saline, pH 7.4. […] Stability incubations were initiated with the addition of MRS2365 (1 μM final concentration). Initial assessments of stability in EDTA-generated plasma utilized incubation timepoints of 0, 10, 30, 60, 120 and 240 minutes (FIGS. 3 and 4). […]
Plasma and blood samples were also qualitatively analyzed for MRS2365 metabolites utilizing a LC-MS/MS-based “metabolite scouting” protocol. […] Blood and plasma samples were analyzed by both positive- and negative-ion LC/MS-MS for parent compound and metabolites as it was anticipated that the phosphorylated compounds would preferentially generate negative ions while the riboside MRS4322 would preferentially generate positive ions. In positive-ion mode, extracted ion chromatograms monitored masses in the range of 323.7-324.7 and 403.7-404.7 to scout for MRS4322 and MRS2347, respectively. Any ion peaks in these ranges were further analyzed to generate product ion spectra for these ion chromatogram peaks. […]

[2] = Previous in vivo pharmacokinetic assessments of MRS2365 in mice; conditions: heparin as blood anticoagulant for plasma preparation, initial assessments
[3] = In vitro stability of MRS2365 in mouse plasma; type: in vitro ADME; conditions: heparin-treated mouse plasma, 0-90 seconds, even at 0 and 5 seconds
Procedure: as §1
Plasma Stability Determination: MRS2365, enalapril and procaine were solubilized in phosphate-buffered saline, pH 7.4. […] Stability incubations were initiated with the addition of MRS2365 (1 μM final concentration). Initial assessments of stability in EDTA-generated plasma utilized incubation timepoints of 0, 10, 30, 60, 120 and 240 minutes (FIGS. 3 and 4). Subsequent studies comparing EDTA- and heparin-generated plasma utilized incubation timepoints of 0, 1, 2.5, 5, 7.5, 10 and 30 minutes (FIG. 7). Additional plasma stability incubations comparing EDTA- and heparin-generated plasma were performed using timepoints of 0, 5, 10, 20, 30, 45, 60 and 90 seconds (FIG. 8). For metabolite scouting analyses, MRS2365 was incubated in heparinized human plasma at a concentration of 100 μM for 10 or 30 minutes (FIG. 9). In all studies, plasma was immediately placed in microtainer tubes, frozen on dry ice and stored at −80° C. until analysis.
The following table outlines the LC and MS/MS conditions employed (Table 11).
The calibration range for MRS2365 plasma and blood concentration standard curves was 5-5000 ng/mL. […]

A3 receptor = biological target: T1, A3 receptor (Mus musculus, UniProt Q61618); test: Affinity at the A3 receptor in the mouse as stated in the discussion; type: binding
T1 sequence (Q61618 1-319): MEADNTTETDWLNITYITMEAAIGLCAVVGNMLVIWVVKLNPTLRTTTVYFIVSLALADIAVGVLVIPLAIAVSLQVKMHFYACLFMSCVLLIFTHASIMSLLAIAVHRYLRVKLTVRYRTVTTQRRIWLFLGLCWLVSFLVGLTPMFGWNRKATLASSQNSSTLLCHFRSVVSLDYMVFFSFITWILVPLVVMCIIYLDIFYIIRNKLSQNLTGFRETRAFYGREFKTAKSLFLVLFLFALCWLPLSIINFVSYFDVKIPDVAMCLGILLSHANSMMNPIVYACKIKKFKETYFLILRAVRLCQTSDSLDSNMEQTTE

[4] = Pharmacokinetics of MRS4322 following intravenous administration to neonatal pigs; type: in vivo; conditions: 0.2 mg/kg IV; for C0: 0.2 mg/kg, neonatal pig plasma, individual animals
Procedure: Animals. Four-week old female neonatal pigs weighing approximately 7.5 Kg were used for this study, supplied by the Department of Bioengineering, University of Pennsylvania (Philadelphia, PA). Animals were equipped with brain microdialysis probes to obtain brain extracellular fluid samples for drug concentration determinations during the study. All studies were conducted under approved University of Pennsylvania IACUC protocols.
Drug Administration: MRS4322 was solubilized in DMSO and then diluted in saline to prepare dosing solution. A 10 mL volume of dosing solution was administered by intravenous bolus administration to each neonatal pig (n=3).
Tissue Sampling: Blood samples were obtained at 0.25, 0.5, 1, 2, 4 and 6 hours post-dose. Brain extracellular fluid samples were obtained from implanted microdialysis probes at 1, 4 and 6 hours post-dose. Whole blood (1 mL) was obtained at each timepoint and placed in vacutainer tubes containing heparin and immediately centrifuged for preparation of plasma; plasma was stored at −80° C. Brain extracellular and cerebrospinal fluid samples were stored at −80° C. At the time of euthanasia (6 hours post-dose), cerebrospinal fluid samples were obtained and frozen, while brain samples from the cortex and hippocampus were obtained by decapitation, rinsed in ice-cold phosphate-buffered saline and weighed. Brain samples were then immediately flash-frozen in liquid nitrogen and stored at −80° C.
The following table outlines the LC and MS/MS conditions employed:
The calibration ranges for all of the MRS4322 matrice's standard curves were 0.1-1000 ng/mL.
For bioanalysis of brain concentrations of MRS4322, brain samples were homogenized in ice-cold phosphate-buffered saline in a 4× dilution. Aliquots of the resulting diluted brain homogenate were treated with acetonitrile and analyzed by LC-MS/MS.

| metabolites observed (M2 = MRS2347, M1 = MRS4322) ([1]; 100 μM in human plasma, lithium heparin as anti-coagulant) | MRS2365 concentrations during incubation ([1]; heparin-treated human plasma, 0-90 seconds, even at 0 and 5 seconds) | MRS2365 concentrations during incubation [3] | difference in affinity between MRS4322 and Cl-IB-MECA (A3 receptor) | C0 ([4]; female, pig, plasma, iv, read-out: C0) [ng/mL] | C0 [4] [ng/mL] | Plasma Concentration by Subject ([4]; neonatal pigs, 0 h, individual subjects, BLQ = below 0.0975 ng/mL) | Plasma Concentration Mean ([4]; neonatal pigs, 0 h, BLQ = below 0.0975 ng/mL) | SMILES | in vivo clearance [2] |
| --- | --- | --- | --- | --- | --- | --- | --- | --- | --- |
| Two metabolites | extremely low | extremely low |  |  |  |  |  | CSc1nc(N)c2ncn([C@H]3[C@H](O)[C@H](O)[C@]4(COP(=O)(O)OP(=O)(O)O)C[C@H]34)c2n1 [MRS2365] | rapidly cleared at a rate approximating cardiac output |
|  |  |  | approximately 25,000 fold | 266 | 269 | BLQ | BLQ | CSc1nc(N)c2ncn([C@H]3[C@H](O)[C@H](O)[C@]4(CO)C[C@H]34)c2n1 [MRS4322] |  |
